Source: patent publication US20120039926A1, “Compositions and Methods for Modulating Immunogenic Responses by Activating Dendritic Cells” (priority 2009, published 2012)

How the values were obtained:
[1] = system: A/J or C57BL/6 female mice; assay type: in vivo, mouse
[2] = system: A/J or C57BL/6 female mice; assay type: in vivo, mouse; conditions: sera of days 3, 10 and 24
[3] = system: C57BL/6 bone marrow (BM) cells; assay type: cell-based, mouse; conditions: second day after treatment, 14.5 micromoles
CD3- BM cells = assay: Surface CD8 and intracellular IL-12p70 in CD3-depleted bone marrow cells; assay type: cell-based, mouse; conditions: BM cells after treatment
From the text: CD3+ cells were removed from BM cells using the fluorescence activated cell sorter and then untreated or treated with JgD or JH. Flow cytometric analysis of the sorted population confirmed the removal of CD3 positive cells. The CD3− BM cells were labeled with FITC-anti-CD8 (Beckman Coulter (clone 53-6.7)), fixed with paraformaldehyde, permeabilized with saponin (Intraprep, Immunotech), labeled with PE-anti-IL-12p70 (Beckman Coulter) and then post fixed with paraformaldehyde prior to immunofluorescence analysis.

BM cells = assay: Protein array of spent medium from treated BM cells; assay type: cell-based, mouse
Protocol: Bone marrow (BM) cells were prepared. Briefly, the femurs and tibias were obtained from five C57BL/6 female mice, and the ends were removed to expose the hollow bone packed with marrow. BM cells were flushed from the bones with cold Hanks Balanced Salt Solution (HBSS) using a sterile disposable 22 g needle and pooled. Red blood cells (RBCs) were lysed using Tris-buffered ammonium chloride and resultant cells were washed 3 times in HBSS. BM cells were suspended in tissue culture medium (TCM) (RPMI 1640 with glutaminie plus […] PenStrep, 50 uM 2-mercaptoethanol, and 5% fetal calf serum) at approximately 5×10^6 cells/ml and incubated for 1 hour at 37° C. in a 5% CO2 atmosphere in plastic tissue culture flasks to remove adherent, mature macrophages. Decanted non-adherent cells were resuspended in TCM and 1.5×10^6 BM cells in 1 ml were placed into each well of a 24-well tissue culture plate (Falcon) and either left untreated or treated with 14.5 micromoles of J, gD, JgD or JH vaccines. After incubation for 48 hrs at 37° C., cells were viewed and photographed for changes in morphology, tissue culture supernatants were removed and the cells were prepared for flow cytometric analysis.

human monocytes = assay type: cell-based; conditions: DC precursors (GMCSF and IL4), spent medium

**Q.** With “J-ICBL: immune cell binding ligand, amino acid 38-50 from the β-2-microglobulin (DLLKNGERIEKVE), unconjugated” as the substance, how does the “IL-10 serum level relative to adjuvant control” value [1] read?
**A.** Its value is “significantly decreased to only a half or to a third”.

**Q.** What about the IL-12p40 serum level ([1]; versus adjuvant control) of the same substance?
**A.** The IL-12p40 serum level was “small but not significant increase”.

**Q.** And the IL-12p70 serum level ([1]; versus adjuvant control)?
**A.** The IL-12p70 serum level was “small but not significant increase”.

**Q.** What about the “IL-12p70 in sera (direct ELISA), in words” value [2] of the same substance?
**A.** The value was “only trace or undetectable amounts”.

**Q.** And the “CD11c expression on monocyte population of BM cells” value [3]?
**A.** The value was “no discernable change”.

**Q.** And the “CD86 expression on monocyte population of BM cells” value [3]?
**A.** The value was “no discernable change”.

**Q.** And the IL-12p70 expressing cells (CD3- BM cells)?
**A.** The IL-12p70 expressing cells was “no significant increase”.

**Q.** And the “cytokine response in spent medium of treated BM cells” value (BM cells)?
**A.** Its value is “failed to detect a cytokine response”.

**Q.** What about the “production of cytokines (protein array)” value (human monocytes) of the same substance?
**A.** Its value is “no significant production of cytokines”.
